In publication PMC6814738, “Bacterial MgrB peptide activates chemoreceptor Fpr3 in mouse accessory olfactory system and drives avoidance behaviour” (Nature Communications, 2019):
Values joined by “and” are separate entries in the source; they are usually repeats but may differ in a detail not shown here. Identical values can stand only once. Peptide text beside a SMILES is read from it. * marks the point of attachment. For = O=C*

What was measured:
[1] = system: vomeronasal sensory neurons (VSNs); experiment: VNO whole-mount en face confocal Ca2+ imaging of VSN dendritic knobs (Fig. 4, 5); assay type: cell-based, mouse; set-up: key to Ca2+ response of f-MKKFRW-responsive VSN knobs / Fpeak: normalised to knob resting fluorescence F0 before stimulation; settings: for Fpeak / Ca2+ response of f-MKKFRW-responsive VSN knobs: Fig. 4h; for Fpeak: mean of individual knobs, n = 103 f-MKKFRW, 21 f-MKKFRWVVL, 68 MKKFRW, 26 f-MGFFIS, 63 PUM; for Ca2+ responses in VSNs, in words: VNE of adult B6 mice, f-MKKFRW 1 µM; for Ca2+ response of f-MKKFRW-responsive VSN knobs: adult B6 mice, mean ± s.d., N = 103 (f-MKKFRW), 21 (f-MKKFRWVVL), 68 (MKKFRW), 26 (f-MGFFIS), 63 (PUM)
Description: Mice (6–20 week old, either sex) were euthanized by CO2 inhalation according to institutional guidelines. After decapitation, the skin was removed from the skull, the mandible was cut off and the cranium was opened by a sagittal cut, 1–2-mm right-lateral in parallel to the midline. The palate and the right incisor were removed and the hemisected skull was mounted in low-melting agarose (4%). The bony capsule of the VNO was opened with fine forceps and the nonsensory epithelium was stripped off. Tissue and cell debris were gently washed off, and the en face preparation was superfused with physiological S1 solution (120 mM NaCl, 25 mM NaHCO3, 5 mM KCl, 1 mM MgSO4, 1 mM CaCl2, 10 mM glucose, 5 mM BES, pH 7.3) saturated with carbogen (95% O2, 5% CO2).
Loading of the VNE with Rhod-2/AM (5–15 µM, 1 h) was performed in S1 solution under carbogen atmosphere at RT. Images were taken with an upright confocal laser scanning microscope (Leica TCS SP5 II, 20x water immersion objective HCX APO L20x/1.0w) equipped with Ar and He/Ne lasers. GFP was excited at 488 nm, Venus at 514 nm and Rhod-2 at 543 nm. Emission was measured at 490–520 nm (GFP), 520–600 nm (Venus) and 560–680 nm (Rhod-2). To minimise interference between Venus and Rhod-2 fluorescence, images were taken sequentially (sample interval per image, 3–4 s). Peptide stimuli were applied to the VNE surface with a local perfusion system which, when positioned close to the anterior end of the VNO, produced a continuous solution stream from rostral to caudal along the VNO axis. Data analysis was performed with the open source software ImageJ (NIH). Ca^2+ responses of individual dendritic knobs were normalised to the knob resting fluorescence level obtained before stimulation (ratio Fx/F0, Fx = actual fluorescence; F0 = mean fluorescence of 3–5 images before ligand application). Mapping was performed by superimposing Ca^2+ peak images onto images showing intrinsic fluorescence for specific markers.
Predator urine mix was composed of urine from mountain lion, coyote, bobcat, fox and marten (at equal volume ratios), purchased from Predatorpee (USA) and Kieferle (Germany). The fMet peptides were as described above. Stimuli were applied in S2 solution (140 mM NaCl, 5 mM KCl, 10 mM HEPES, 1 mM CaCl2, 1 mM MgCl2, 10 mM glucose, pH 7.3 with NaOH).

male mice = experiment: Behavioural avoidance test, FEU vs. FEU supplemented with peptide (Fig. 8, Supplementary Fig. 4); assay type: in vivo, mouse; settings: for avoidance index: mean ± s.e.m.; for Preference (%): group mean value, FEU vs FEU supplemented with 100 µM peptide
Procedure: These assays were adapted from behavioural procedures described previously[14],[60]. We tested avoidance by giving adult male mice (8–14 week old) of various genotypes a choice to freely investigate two types of chemical stimuli: FEU vs. FEU supplemented with a peptide. Mice were sexually naïve and not exposed to the test stimuli prior to the testing day. Mice were habituated for three days (40 min each day) to clean filter papers (2.5 cm diameter), each deposited in a sterile plastic culture dish and placed in opposite corners of the test cage (30 × 12 cm). After the third habituation period, the test subject was transferred into a new cage containing fresh filter papers/dishes with either of the two test stimuli. One filter paper was impregnated with 45 µl of fresh urine pooled from two sexually naïve female B6 mice (8–16 weeks old) in oestrus (FEU, female oestrous urine) and 5 µl physiological solution containing (in mM): NaCl, 130; KCl, 5; Na-Hepes, 10; CaCl2, 2; glucose, 10; pH = 7.4. For testing the effects of specific peptides, the second filter paper was impregnated with FEU supplemented with a given peptide (100 or 50 µM final concentration, dissolved in physiological solution). Direct physical contact was allowed. Behaviour was recorded for 10 min from the top of the cage. Mice were exposed only once to a given peptide solution, and were exposed to only one peptide stimulus per day. Stimuli were presented in randomised order. […] This investigative behaviour was quantified as the time spent in close contact with each filter paper, scored manually by an observer blind to the experimental conditions using Behavioural Observation Research Interactive Software (BORIS)[85]. Contact time was measured as the time during which the nose crossed the border of a petri dish containing impregnated filter paper. An avoidance index was calculated as (TP — aTU)/(aTP + aTU), with TP as the time an individual mouse investigated a FEU-peptide mixture, aTP as the average time of all tested mice investigating this stimulus and aTU as the average time of all mice investigating FEU without added peptide. Negative values represent avoidance and positive values represent attraction. For analysing investigation of sick conspecifics, B6 mice were injected either with LPS or PBS as described above. In total, 4 h post injection, these mice were anaesthetised with 165 mg/kg ketamine (Pharmacia GmbH, Berlin, Germany) and 11 mg/kg xylazine (Bayer Health Care, Leverkusen, Germany) and then used in behavioural tests.

[2] = 100 µM, B6 mice (f-MKKFRW also ΔFpr3-lacZ+/+, cGαo+/−, Trpc2+/−)
[3] = B6, 100 µM in FEU, n = 10-11, negative = avoidance
[4] = Fig. 8c, individual values, B6 mice
[5] = Fig. 8c, mean, B6 mice, n = 11 f-MKKFRW, 11 MKKFRW, 10 f-MGFFIS, 10 f-MEQQNK, FEU control -0.002

`CSCC[C@H](NC=O)C(=O)N[C@@H](CCCCN)C(=O)N[C@@H](CCCCN)C(=O)N[C@@H](Cc1ccccc1)C(=O)N[C@@H](CCCNC(=N)N)C(=O)N[C@@H](Cc1c[nH]c2ccccc12)C(=O)O` [f-MKKFRW] (For-MKKFRW-OH) was tested, and the “fraction of knobs responding” value ([1]; 1 µM, VNE, B6 mice) was ~ 0.15%, the “Ca2+ responses in Venus+ (B2m) vs GFP+ (NP2) knobs, in words” value ([1]; 1 µM, heterozygous NP2∆ or B2m-Venus mice, Fig. 5g, h) was “Responses occurred in Venus+ but not in GFP+ knobs” and the Fpeak [1] was 0.71. For the same compound, the “Ca2+ responses in VSNs, in words” value [1] was “robust, transient Ca^2+ elevations in a small subset of VSNs”, the “Ca2+ response of f-MKKFRW-responsive VSN knobs” value [1] was 0.71 ± 0.44 and the “detection threshold for evoked Ca2+ responses in VSNs” value ([1]; native VSNs of adult B6 mice, Rhod-2/AM, Fig. 4f) was no more than 0.1 µM. The “avoidance, in words” value (male mice; 50 µM, B6 mice) was “mice were still capable of displaying avoidance”, the “avoidance, in words” value (male mice; [2]) was “robust avoidance” and the “avoidance, in words” value (male mice; 100 µM, ΔFpr3-lacZ −/−, cGαo −/− and Trpc2 −/− mice) was “absent”. The avoidance index (male mice; B6, 50 µM in FEU, N = 9, Supplementary Fig. 4d) was -0.34 ± 0.06, the avoidance index (male mice; [3]) was −0.34 ± 0.03 and the “Preference Index” value (male mice; [4]) was -0.2596 and -0.3493 and -0.4593 and -0.377 (2×) and -0.1335 and -0.375 and -0.3656 and -0.2037 and -0.2877 and -0.531. For the same compound, the “Preference Index” value (male mice; [5]) was -0.34, the “Preference Index” value (male mice; Fig. 8e, individual values, cGao +/-) was -0.2157 and -0.2715 and -0.2275 and -0.592 and -0.6063 and -0.5538 and -0.3716 and -0.4364 and -0.4748 and -0.4802 and -0.5951 and -0.504 and -0.5805 and the “Preference Index” value (male mice; Fig. 8e, individual values, cGao -/-) was 0.466 and 0.06846 and 0.3027 and 0.3207 and 0.1056 and -0.3803 and 0.00671 and 0.2965 and 0.7963 and 0.4351 and -0.3658 and -0.3561 and -0.3465. For the same compound, the “Preference Index” value (male mice; Fig. 8e, mean, cGao +/-, n = 13 f-MKKFRW, 12 MKKFRW, FEU control -0.0358) was -0.45, the “Preference Index” value (male mice; Fig. 8e, mean, cGao -/-, n = 13, FEU control 0.15) was 0.10 and the “Preference Index” value (male mice; Fig. 8f, individual values, Trpc2 +/-) was -0.1378 and -0.4957 and -0.5951 and -0.4313 and -0.5692 and -0.4357 and -0.03894 and -0.2863 and -0.157 and -0.6487 and -0.5152 and -0.5504. For the same compound, the “Preference Index” value (male mice; Fig. 8f, individual values, Trpc2 -/-) was -0.1066 and -0.3083 and -0.1978 and -0.152 and 0.6895 and 0.2354 and -0.08494 and 0.4331 and -0.3499 and -0.2993 and -0.07691, the “Preference Index” value (male mice; Fig. 8f, mean, Trpc2 +/-, n = 12 f-MKKFRW, 9 MKKFRW, FEU control -0.0531) was -0.41 and the “Preference Index” value (male mice; Fig. 8f, mean, Trpc2 -/-, n = 11 f-MKKFRW, 8 MKKFRW, FEU control -0.10) was -0.02. For the same compound, the “Preference (%)” value (male mice; Fig. 8g, ∆Fpr3-lacZ +/+ males, FEU/FEU control -5.85844) was -25.7155%, the “Preference (%)” value (male mice; Fig. 8g, ∆Fpr3-lacZ -/- males, FEU/FEU control 2.58474) was 9.5733% and the “Preference (%)” value (male mice; Fig. 8h, Trpc2 +/- males, FEU/FEU control 0.100694) was -20.0023%. The “Preference (%)” value (male mice; Fig. 8h, Trpc2 -/- males, FEU/FEU control -3.21189) was -1.896%, the “Preference Index” value (male mice; Fig. 8d, individual values, ∆Fpr3-lacZ +/+) was -0.634 and -0.7071 and -0.2684 and -0.569 and -0.6199 and -0.495 and -0.4793 and -0.629 and -0.5062 and the “Preference Index” value (male mice; Fig. 8d, individual values, ∆Fpr3-lacZ -/-) was -0.00973 and -0.216 and 0.248 and 0.6807 and 0.8928 and 0.2328 and 0.2493 and -0.01291 and 0.00975 and -0.2244 and 0.2479 and 0.4981. For the same compound, the “Preference Index” value (male mice; Fig. 8d, mean, ∆Fpr3-lacZ +/+, n = 9 f-MKKFRW, 6 MKKFRW, FEU control -0.06) was -0.55, the “Preference Index” value (male mice; Fig. 8d, mean, ∆Fpr3-lacZ -/-, n = 12, FEU control 0.19) was 0.22 and the avoidance index (male mice; Trpc2 +/−, 100 µM in FEU) was −0.41 ± 0.06. For the same compound, the avoidance index (male mice; Trpc2 −/−, 100 µM in FEU) was −0.02 ± 0.10, the avoidance index (male mice; cGαo +/−, 100 µM in FEU) was −0.45 ± 0.04 and the avoidance index (male mice; cGαo −/−, 100 µM in FEU, n = 13) was 0.10 ± 0.11. It also gave an avoidance index (male mice; ∆Fpr3-lacZ +/+, 100 µM in FEU) of −0.55 ± 0.04, an avoidance index (male mice; ∆Fpr3-lacZ −/−, 50 µM in FEU, N = 5, Supplementary Fig. 4d) of 0.005 ± 0.08 and an avoidance index (male mice; ∆Fpr3-lacZ −/−, 100 µM in FEU, n = 12) of 0.22 ± 0.10.

With “f-MGFFIS [bacterial signal peptide fragment]” the Fpeak [1] was 0.00, the “Ca2+ responses in VSNs, in words” value [1] was “failed to evoke Ca^2+ responses in VSNs” and the “Ca2+ response of f-MKKFRW-responsive VSN knobs” value [1] was 0.00 ± 0.00. The “avoidance, in words” value (male mice; [2]) was “failed to elicit avoidance”, the avoidance index (male mice; [3]) was 0.13 ± 0.09 and the “Preference Index” value (male mice; [4]) was -0.07414 and 0.6081 and -0.2699 and 0.01401 and 0.4619 and -0.1746 and 0.304 and 0.1043 and 0.0419 and 0.2857. For the same compound, the “Preference Index” value (male mice; [5]) was 0.13.
